Laboratory results as given in article PMC314469, “Protein Interaction Networks by Proteome Peptide Scanning” (PLoS Biology, 2004).

Test system: Myo5 SH3 domain
Assay: SPOT analysis of cellulose-bound peptides (WISE), Myo5 SH3 domain (Dataset S4)
Assay type: binding, Saccharomyces cerevisiae
Conditions: for The normalized value in BLU units: Myo5 SH3 domain
[1] = SPOT analysis of membrane-synthesized peptides probed with Myo5 SH3 domain, normalized value
[2] = SPOT analysis of membrane-bound peptides, normalized value (see methods)
[3] = SPOT analysis of cellulose-bound 14-mer yeast proteome peptides, normalized value, mean where the peptide was synthesized more than once
[4] = SPOT analysis of cellulose-bound peptides probed with Myo5 SH3 domain, normalized value

For FQDYRCSPWCPSRS, the “The normalized value in BLU units (SPOT analysis, Myo5 SH3)” value [1] was 263.5 BLU.
For DENSKWQPSDPFTM, the “The normalized value in BLU units (SPOT analysis, Myo5 SH3)” value [1] was 285.2 BLU.
In the case of VSQRKKRPISPHLT, the “The normalized value in BLU units” value [2] is reported as 814.5 BLU.
For FFFFHLSPSIPFWF, the “The normalized value in BLU units” value [3] was 6490.2 BLU.
For VPGGMSIPGAPQGA, the “The normalized value in BLU units (SPOT analysis, Myo5 SH3)” value [4] was 139.5 BLU.
KDFSKNAPYNPSEV was tested, and the “The normalized value in BLU units” value [2] was 142.6 BLU.
With REDAHEDPVSPKAG the “The normalized value in BLU units” value [3] was 144.8 BLU.
With TLATLTEPKLPKSY the “The normalized value in BLU units” value [3] was 18.0 BLU.
For NSNVRIPPTVPSKI, the “The normalized value in BLU units” value [2] was 423.1 BLU.
With SFTPFNRPSDPSNG the “The normalized value in BLU units (SPOT analysis, Myo5 SH3)” value [4] was 208.5 BLU.
With PLFGLSIPKTPTLK the “The normalized value in BLU units (SPOT analysis, Myo5 SH3)” value [4] was 121.7 BLU.
LDTHKESPLRPKVR was tested, and the “The normalized value in BLU units” value [2] was 199.3 BLU.
In the case of GTVTKTAPSFPQSS, the “The normalized value in BLU units (SPOT analysis, Myo5 SH3)” value [1] is reported as 261.1 BLU.
In the case of KTVDKGLPMIPTYV, the “The normalized value in BLU units” value [3] is reported as 76.8 BLU.
For TNGPRYSPQNPRPF, the “The normalized value in BLU units” value [2] was 158.5 BLU.
With IPTSHAPPLPPTAP the “The normalized value in BLU units” value [3] was 43593.6 BLU.
GENIKITPQKPFWF was tested, and the “The normalized value in BLU units” value [2] was 115.0 BLU.
ADDLKYIPPIPQDF was tested, and the “The normalized value in BLU units” value [2] was 86.7 BLU.
For NYHHRETPPPPPSN, the “The normalized value in BLU units (SPOT analysis, Myo5 SH3)” value [1] was 317.8 BLU.
In the case of KNPTKSPPPPPSPS, the “The normalized value in BLU units (SPOT analysis, Myo5 SH3)” value [1] is reported as 27847.4 BLU.
With DKIFKTDPNEPAND the “The normalized value in BLU units (SPOT analysis, Myo5 SH3)” value [1] was 99.1 BLU.
With KITKKLGPKLPKAS the “The normalized value in BLU units (SPOT analysis, Myo5 SH3)” value [1] was 680.7 BLU.
With RLWLYAAPKRPKTF the “The normalized value in BLU units (SPOT analysis, Myo5 SH3)” value [4] was 845.1 BLU.
For VLKNLPTPGEPFNF, the “The normalized value in BLU units” value [3] was 148.4 BLU.
With TSCTKEKPTPPTTT the “The normalized value in BLU units” value [3] was 118.4 BLU.
With VEVIMHSPSDPEYA the “The normalized value in BLU units (SPOT analysis, Myo5 SH3)” value [4] was 150.4 BLU.
With FLSRYPVPDLPIYL the “The normalized value in BLU units” value [3] was 1340.1 BLU.
With SPNDHSDPSCPCNR the “The normalized value in BLU units” value [3] was 76.1 BLU.
For LWKPLVYPTCPSEH, the “The normalized value in BLU units (SPOT analysis, Myo5 SH3)” value [4] was 185.3 BLU.
For LAGIRLVPVLPILL, the “The normalized value in BLU units (SPOT analysis, Myo5 SH3)” value [1] was 152.2 BLU.
In the case of SENGRLTPGLPRSY, the “The normalized value in BLU units” value [3] is reported as 169.8 BLU.
For KLYYRHRPQKPVRT, the “The normalized value in BLU units” value [2] was 915.7 BLU.
With QNGLRFNPDVPKLW the “The normalized value in BLU units (SPOT analysis, Myo5 SH3)” value [1] was 260.1 BLU.
For VLKGFYSPSAPSYD, the “The normalized value in BLU units (SPOT analysis, Myo5 SH3)” value [4] was 290.1 BLU.
For LNATKISPSAPSKD, the “The normalized value in BLU units” value [2] was 114.4 BLU.
For HEVPKRSPEKPSNP, the “The normalized value in BLU units” value [2] was 171.6 BLU.
For TGKFRYMPFSPAGT, the “The normalized value in BLU units (SPOT analysis, Myo5 SH3)” value [1] was 555.5 BLU.
With EFPGKKCPRLPHRN the “The normalized value in BLU units (SPOT analysis, Myo5 SH3)” value [1] was 367.5 BLU.
For SKVNKVAPDHPFIQ, the “The normalized value in BLU units” value [3] was 72.1 BLU.
With PPLDFEQPRLPSTA the “The normalized value in BLU units (SPOT analysis, Myo5 SH3)” value [4] was 192.3 BLU.
NIFQKQLPKMPKEY was tested, and the “The normalized value in BLU units (SPOT analysis, Myo5 SH3)” value [1] was 276.2 BLU.
INTFKTLPTKPEMQ was tested, and the “The normalized value in BLU units (SPOT analysis, Myo5 SH3)” value [1] was 167.1 BLU.
In the case of MLKALFTPLIPVSF, the “The normalized value in BLU units” value [3] is reported as 257.0 BLU.
In the case of QGSNKYSPSSPLTT, the “The normalized value in BLU units (SPOT analysis, Myo5 SH3)” value [1] is reported as 171.4 BLU.
In the case of RLIKRLKPPAPKEP, the “The normalized value in BLU units (SPOT analysis, Myo5 SH3)” value [1] is reported as 403.1 BLU.
With TGESRKAPLIPLLK the “The normalized value in BLU units (SPOT analysis, Myo5 SH3)” value [1] was 214.2 BLU.
For KFDAKGRPIPPHPD, the “The normalized value in BLU units” value [2] was 53.5 BLU.
With NFPQRMMPPPPGLV the “The normalized value in BLU units (SPOT analysis, Myo5 SH3)” value [1] was 617.7 BLU.
With SSVSKLKPSLPNKL the “The normalized value in BLU units (SPOT analysis, Myo5 SH3)” value [1] was 418.3 BLU.
For SKIKRSRPPPPPMD, the “The normalized value in BLU units” value [2] was 5408.9 BLU.
With SILRKSSPEEPFMS the “The normalized value in BLU units (SPOT analysis, Myo5 SH3)” value [1] was 144.2 BLU.
With KPLKFLRPTYPDLC the “The normalized value in BLU units” value [3] was 149.2 BLU.
With VAGYFVIPHTPMPS the “The normalized value in BLU units” value [3] was 179.6 BLU.
In the case of KLWDLSKPSKPLKE, the “The normalized value in BLU units (SPOT analysis, Myo5 SH3)” value [4] is reported as 233.1 BLU.
GEYDLIMPIYPYRL was tested, and the “The normalized value in BLU units” value [3] was 242.0 BLU.
In the case of YEADYVIPVLPGSH, the “The normalized value in BLU units” value [3] is reported as 124.6 BLU.
For RPSKFFHPPIPHIP, the “The normalized value in BLU units (SPOT analysis, Myo5 SH3)” value [4] was 776.9 BLU.
In the case of QPTNFQYPPPPFGQ, the “The normalized value in BLU units (SPOT analysis, Myo5 SH3)” value [4] is reported as 224.1 BLU.
TEGKYAPPSQPSMA was tested, and the “The normalized value in BLU units (SPOT analysis, Myo5 SH3)” value [4] was 222.8 BLU.
For RLSLLRSPKAPDAH, the “The normalized value in BLU units” value [3] was 442.3 BLU.
QVYEKTIPLFPPEI was tested, and the “The normalized value in BLU units (SPOT analysis, Myo5 SH3)” value [1] was 153.0 BLU.
DFRLHYYPKDPSNV was tested, and the “The normalized value in BLU units (SPOT analysis, Myo5 SH3)” value [4] was 77.7 BLU.
For QPPDRNLPSHPSSN, the “The normalized value in BLU units (SPOT analysis, Myo5 SH3)” value [1] was 155.8 BLU.
With IVNEKRTPALPSNL the “The normalized value in BLU units (SPOT analysis, Myo5 SH3)” value [1] was 101.8 BLU.
With SEMHRAAPETPRSI the “The normalized value in BLU units (SPOT analysis, Myo5 SH3)” value [1] was 322.4 BLU.
DLMALKYPYFPTKM was tested, and the “The normalized value in BLU units (SPOT analysis, Myo5 SH3)” value [4] was 139.1 BLU.
With SPSTMDFPKLPSFQ the “The normalized value in BLU units (SPOT analysis, Myo5 SH3)” value [4] was 466.9 BLU.
With YCPWKLCPLLPILY the “The normalized value in BLU units” value [2] was 176.0 BLU.
With TKAKKEKPKPPKPI the “The normalized value in BLU units” value [3] was 157.7 BLU.
In the case of YLNNLAEPLIPLSL, the “The normalized value in BLU units (SPOT analysis, Myo5 SH3)” value [4] is reported as 222.0 BLU.
For AGLYKLSPLYPFDV, the “The normalized value in BLU units (SPOT analysis, Myo5 SH3)” value [1] was 133.2 BLU.
VCHSKYIPLKPIQD was tested, and the “The normalized value in BLU units” value [2] was 298.3 BLU.
NGTWKYNPTVPNEL was tested, and the “The normalized value in BLU units” value [2] was 172.6 BLU.
With YFKNMSNPKIPATK the “The normalized value in BLU units (SPOT analysis, Myo5 SH3)” value [4] was 127.8 BLU.
For MGLNKDVPHCPESL, the “The normalized value in BLU units (SPOT analysis, Myo5 SH3)” value [1] was 99.4 BLU.
For VNIGRRSPYLPLQP, the “The normalized value in BLU units (SPOT analysis, Myo5 SH3)” value [1] was 476.3 BLU.
TFSIYSIPSKPGEC was tested, and the “The normalized value in BLU units (SPOT analysis, Myo5 SH3)” value [4] was 226.8 BLU.
For LELLLSLPTGPESK, the “The normalized value in BLU units (SPOT analysis, Myo5 SH3)” value [4] was 142.9 BLU.
VYRRKCIPFAPHQI was tested, and the “The normalized value in BLU units (SPOT analysis, Myo5 SH3)” value [1] was 382.9 BLU.
For MDMDRNVPLAPNLN, the “The normalized value in BLU units” value [2] was 91.4 BLU.
With NEIELLRPRSPVQK the “The normalized value in BLU units (SPOT analysis, Myo5 SH3)” value [4] was 125.6 BLU.
In the case of VAPGLWFPNSPPPL, the “The normalized value in BLU units” value [3] is reported as 4831.4 BLU.
With TASQLQNPPPPPST the “The normalized value in BLU units” value [3] was 168.2 BLU.
For YEQTMKSPKYPSTY, the “The normalized value in BLU units (SPOT analysis, Myo5 SH3)” value [4] was 138.4 BLU.
With EIAKRLQPGSPVLG the “The normalized value in BLU units” value [2] was 172.5 BLU.
SFRELWQPVDPSRE was tested, and the “The normalized value in BLU units” value [3] was 97.3 BLU.
In the case of RRKLRTVPGVPLIH, the “The normalized value in BLU units (SPOT analysis, Myo5 SH3)” value [1] is reported as 2011.1 BLU.
In the case of HPIHLQPPVPPVYK, the “The normalized value in BLU units” value [3] is reported as 317.7 BLU.
